Experimental data reported in PubChem BioAssay AID330 (DTP/NCI, 2004).
“And” between values parts separate entries of the source, which are not always exact repeats. Equal values may be shown once. Inconclusive results and toxic doses are left out.

Test system: P388 leukemia ip, CD2F1 mice, survival T/C
Assay: NCI In Vivo Anticancer Drug Screen. Data for tumor model P388 Leukemia (intraperitoneal) in CD2F1 (CDF1) mice
Settings: endpoint: median survival time, higher = longer survival
Outline: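 Mice carrying the transplanted tumor received test compound or vehicle. Survival was recorded in each group, and the value is the treated-group measurement divided by that of the vehicle-treated control group.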

CC1OC(=O)C(C(C)C)NC(=O)C(C(C)C)OC(=O)C(C(C)C)NC(=O)C(C)OC(=O)C(C(C)C)NC(=O)C(C(C)C)OC(=O)C(C(C)C)NC(=O)C(C)OC(=O)C(C(C)C)NC(=O)C(C(C)C)OC(=O)C(C(C)C)NC1=O (stereo unspecified)
T/C (dose: 0.03 mg/kg/injection, schedule: Q01DX009 (ip), vehicle: other): 113 % of control
T/C (dose: 0.1 mg/kg/injection, schedule: Q01DX005 (ip), vehicle: DMSO): 110 % of control
T/C (dose: 0.1 mg/kg/injection, schedule: Q01DX005 (ip), vehicle: other): 108 % of control
T/C (dose: 0.12 mg/kg/injection, schedule: Q01DX009 (oral), vehicle: other): 102 % of control
T/C (dose: 0.2 mg/kg/injection, schedule: Q01DX005 (ip), vehicle: DMSO): 116 % of control
T/C (dose: 0.2 mg/kg/injection, schedule: Q01DX005 (ip), vehicle: other): 110 % of control
T/C (dose: 0.23 mg/kg/injection, schedule: Q01DX009 (oral), vehicle: other): 96 % of control
T/C (dose: 0.25 mg/kg/injection, schedule: Q01DX009 (ip), vehicle: other): 154 % of control
T/C (dose: 0.4 mg/kg/injection, schedule: Q01DX005 (ip), vehicle: other): 120 % of control
T/C (dose: 0.47 mg/kg/injection, schedule: Q01DX009 (ip), vehicle: Klucel (hydroxypropylcellulose) (HPC)): 155 % of control
T/C (dose: 0.47 mg/kg/injection, schedule: Q01DX009 (oral), vehicle: other): 98 % of control
T/C (dose: 0.5 mg/kg/injection, schedule: Q01DX009 (ip), vehicle: Klucel (hydroxypropylcellulose) (HPC)): 116 % of control
T/C (dose: 0.5 mg/kg/injection, schedule: Q01DX009 (ip), vehicle: other): 100 % of control
T/C (dose: 0.62 mg/kg/injection, schedule: Q01DX009 (ip), vehicle: saline): 111 % of control and 97 % of control
T/C (dose: 0.94 mg/kg/injection, schedule: Q01DX009 (oral), vehicle: Klucel (hydroxypropylcellulose) (HPC)): 103 % of control
T/C (dose: 0.94 mg/kg/injection, schedule: Q01DX009 (oral), vehicle: other): 93 % of control
T/C (dose: 1.0 mg/kg/injection, schedule: Q01DX005 (ip), vehicle: Klucel (hydroxypropylcellulose) (HPC)): 155 % of control
T/C (dose: 1.25 mg/kg/injection, schedule: Q01DX009 (ip), vehicle: saline): 94 % of control
T/C (dose: 1.88 mg/kg/injection, schedule: Q01DX009 (ip), vehicle: Klucel (hydroxypropylcellulose) (HPC)): 161 % of control
T/C (dose: 1.88 mg/kg/injection, schedule: Q01DX009 (oral), vehicle: Klucel (hydroxypropylcellulose) (HPC)): 108 % of control
T/C (dose: 2.0 mg/kg/injection, schedule: Q01DX005 (ip), vehicle: Klucel (hydroxypropylcellulose) (HPC)): 165 % of control
T/C (dose: 2.5 mg/kg/injection, schedule: Q01DX009 (ip), vehicle: saline): 87 % of control and 94 % of control
T/C (dose: 3.75 mg/kg/injection, schedule: Q01DX009 (oral), vehicle: Klucel (hydroxypropylcellulose) (HPC)): 106 % of control
T/C (dose: 4.0 mg/kg/injection, schedule: Q01DX005 (ip), vehicle: Klucel (hydroxypropylcellulose) (HPC)): 160 % of control and 162 % of control
T/C (dose: 5.0 mg/kg/injection, schedule: Q01DX009 (ip), vehicle: Klucel (hydroxypropylcellulose) (HPC)): 162 % of control
T/C (dose: 5.0 mg/kg/injection, schedule: Q01DX009 (ip), vehicle: saline with Tween-80): 106 % of control
T/C (dose: 5.0 mg/kg/injection, schedule: Q01DX009 (ip), vehicle: saline): 87 % of control and 93 % of control
T/C (dose: 7.5 mg/kg/injection, schedule: Q01DX009 (ip), vehicle: Klucel (hydroxypropylcellulose) (HPC)): 88 % of control
T/C (dose: 7.5 mg/kg/injection, schedule: Q01DX009 (oral), vehicle: Klucel (hydroxypropylcellulose) (HPC)): 88 % of control
T/C (dose: 8.0 mg/kg/injection, schedule: Q01DX005 (ip), vehicle: Klucel (hydroxypropylcellulose) (HPC)): 159 % of control and 162 % of control
T/C (dose: 10.0 mg/kg/injection, schedule: Q01DX009 (ip), vehicle: Klucel (hydroxypropylcellulose) (HPC)): 97 % of control
T/C (dose: 10.0 mg/kg/injection, schedule: Q04DX003 (ip), vehicle: saline with Tween-80): 151 % of control and 167 % of control
T/C (dose: 16.0 mg/kg/injection, schedule: Q01DX005 (ip), vehicle: Klucel (hydroxypropylcellulose) (HPC)): 163 % of control
T/C (dose: 20.0 mg/kg/injection, schedule: Q04DX003 (ip), vehicle: saline with Tween-80): 108 % of control
T/C (dose: 6.25 micrograms/kg/injection, schedule: Q03HX008 (ip), vehicle: other): 101 % of control
T/C (dose: 6.25 micrograms/kg/injection, schedule: Q03HX020 (ip), vehicle: other): 118 % of control
T/C (dose: 6.25 micrograms/kg/injection, schedule: Q12HX004 (iv), vehicle: other): 101 % of control
T/C (dose: 6.25 micrograms/kg/injection, schedule: Q12HX010 (ip), vehicle: other): 111 % of control
T/C (dose: 6.25 micrograms/kg/injection, schedule: Q12HX010 (iv), vehicle: other): 102 % of control
T/C (dose: 12.5 micrograms/kg/injection, schedule: Q01DX001 (iv), vehicle: other): 97 % of control
T/C (dose: 12.5 micrograms/kg/injection, schedule: Q01DX005 (ip), vehicle: other): 103 % of control and 107 % of control
